Blank lines part the entries; values can stand above or below the compound they belong to.
Assays:
[1] = Lipids/surfactants in ECell: solubility and expansion in PBS (images); assay type: physicochemical; conditions: for appearance of ECell compositions containing the lipid/surfactant: 1% w/w (RGD lipids 0.1%), with and without 2.5% CAB polymer; for ECell expansion compared to the reference: LOIB:CAB:DMSO:Surfactant 66.5:2.5:30:1, PBS, reference LOIB:CAB:DMSO 67.5:2.5:30; for ECell expansion compared to the reference / shape of the depot compared to reference: 37° C.; for shape of the depot compared to reference: ECells without CAB, LOIB:GTH:DMSO:Surfactant 69:10:20:1, PBS
Experimental: Different surfactants were formulated in expandable (w CAB, Mn 12000) vs non-expandable (w GTH) ECell formulations in a concentration of 1% w/w. […] Gel formulations containing each surfactant were prepared in 600 mg aliquots.
Duplicates consisting of 100 μL gel depots of each ECell formulation were injected into 2 mL PBS buffer. Samples were incubated at 37° C., and images of a non-expandable vs an expandable ECell containing the same surfactant side-by-side were taken at 1.5 h and 2 days and 7 days post injection to investigate and document surfactant effects on ECell expansion.

[2] = cited from earlier work
[3] = Solvent type and ECell expansion in PBS (visual inspection of images); assay type: physicochemical; conditions: LOIB:CAB (Mn 12000):Solvent 67.5:2.5:30, 100 μL in 2 mL PBS, 37° C., 1.5 h, 2 days, 7 days pi
Experimental: These ECells were prepared to study eventual surface and expansion effects of the specific solvent type on LOIB:CAB compositions. ECell formulations were prepared in 900 mg aliquots. 12 h stability at room temperature (RT) was investigated and documented in images. Only soluble formulations of appropriate viscosity were injected as gel depots into PBS (100 μL, for visual inspection). Duplicates consisting of 100 μL ECell depots of each clear formulation were injected into 2 mL PBS buffer for inspection. Samples were kept at 37° C., and images of each injected gel depot composition were recorded at 1.5 h and 2 days and 7 days post injection (pi) to investigate and document effects of solvent type on the depots.

[4] = In vitro release of antimicrobials from expanding ECells (RHPLC); assay type: physicochemical; conditions: dPBS, 37° C., FIG. 18
Experimental: Each formulation was loaded with antimicrobial in varying concentrations (see Table 1) and was injected as ≈100 μl into 4 ml Dulbecco's Phosphate-buffered Saline (dPBS), in a glass vial, and incubated at 37° C. in atmospheric air, only taken out when samples were collected and new dPBS was added. Sample collection proceeded by removing all dPBS possible with a pipette, weighing the expanding ECells, then saving 1 ml for analysis, returning the rest, and adding new dPBS until 4,000 mg of water was present.
At each chosen time point, 1 ml of the release medium was collected and RHPLC analysis was carried out. […] Solution A was an aqueous mixture of 5% v/v MeCN and 0.01% TFA. […] Rifamycin splits into several peaks over time, and the total AUC of all peaks were used for quantification and standard curve generation.

[5] = In vitro release of MMP / gp-130 inhibitors from expanding ECells (RHPLC); assay type: physicochemical; conditions: 5 mg/g in LOIB:CAB(12 kDa):DMSO (65:5:30), dPBS, 37° C.
Experimental: The in vitro release profile of three inhibitor compounds were elucidated from a LOIB:CAB(12 kDa):DMSO (65:5:30) formulation. […] Loading of inhibitors were done by adding the desired concentration in mg per g of expanding ECells and stirring on a magnetic stirrer at room temperature until the solution became clear.
Each compound was loaded as 5 mg/g in the expanding ECell formulation and injected in 4 ml Dulbecco's Phosphate-buffered Saline (dPBS) as ≈100 μl, in triplicates, and incubated at 37° C. At chosen time points (see FIG. 19a), all dPBS was removed by pipetting, the expanding ECells+potentially absorbed water was weighed, and its weight noted down, 1 ml dPBS was collected for release quantification, and the remaining dPBS+fresh dPBS to a total of 4 ml (4 g) was added.
Weight data was used to generate a graph of the relative expanding ratio as a function of time (FIG. 19b), and from the 1 ml collected, RHPLC analysis was carried out. […] Solution A was an aqueous mixture of 5% v/v MeCN and 0.01% TFA.

[6] = Experimental: After addition of LOIB and DMSO, each ECell formulation was sonicated at 75° C. for 2 hrs and vortexed every 30th minute.

appearance of ECell compositions containing the lipid/surfactant [1]: Homogeneous
ECell expansion compared to the reference [1]: relatively similar to the reference
Compound: CCCCCCCCCCCC(=O)O [Lauric acid]

appearance of ECell compositions containing the lipid/surfactant [1]: Homogeneous
ECell expansion compared to the reference [1]: relatively similar to the reference
Compound: CCCCCCCCCCCC(=O)OCC(O)CO (stereo not shown) [Monolaurin]

expansion of the ECell by solvent, as judged by the eye [3]: cause expansion of the ECell
Compound: CN1CCCC1=O [NMP, N-methyl pyrrolidone]

ECell expansion compared to the reference [1]: slightly reduced
Compound: CCCCCCCC/C=C\CCCCCCCC(=O)O [Oleic acid]

expansion of the ECell by solvent, as judged by the eye [3]: did not expand
Compound: CC1COC(=O)O1 (stereo not shown) [PC, Propylene carbonate]

in vitro release rate (comparison in words) [4]: relatively slower release rate
Compound: CO[C@H]1/C=C/O[C@@]2(C)Oc3c(C)c(O)c4c(O)c(cc(O)c4c3C2=O)NC(=O)/C(C)=C\C=C\[C@H](C)[C@H](O)[C@@H](C)[C@@H](O)[C@@H](C)[C@H](OC(C)=O)[C@@H]1C [Rifamycin SV]
log P [2]: 4.17

cargo released in vitro after 42 days [5]: 10%
Compound: LMT-28
log P [2]: 3.71

appearance of ECell compositions containing the lipid/surfactant [1]: Homogeneous
ECell expansion compared to the reference [1]: slightly reduced
Compound: PEG(10)-monolaurate

appearance of ECell compositions containing the lipid/surfactant [1]: Homogeneous
Compound: PEG(20)-monooleyl ether

appearance of ECell compositions containing the lipid/surfactant [1]: Homogeneous
ECell expansion compared to the reference [1]: slightly reduced
Compound: Tween 80
shape of the depot compared to reference [1]: slight flattening of the depot compared to reference

Second part, the compound before the results:

Compound: 1,2-Dimyristoyl-rac-glycero-3-methoxypolyethylene glycol-2000 [DMG-PEG2K]
appearance of ECell compositions containing the lipid/surfactant [1]: Homogeneous
ECell expansion compared to the reference [1]: slightly reduced

Compound: CNC(=O)[C@H](Cc1ccccc1)NC(=O)[C@H](CC(C)C)[C@H](CSc1cccs1)C(=O)NO [Batimastat]
log P [2]: 3.27

Compound: OCc1ccccc1 [BnOH, Benzyl alcohol]
expansion of the ECell by solvent, as judged by the eye [3]: did not expand

Compound: CCCCOC(C)=O [BuAc, Butyl acetate]
expansion of the ECell by solvent, as judged by the eye [3]: did not expand

Compound: CC(C)CCC[C@@H](C)[C@H]1CC[C@H]2[C@@H]3CC=C4C[C@@H](OC(=O)CCC(=O)O)CC[C@]4(C)[C@H]3CC[C@]12C [CHEMS, cholesteryl hemisuccinate]
appearance of ECell compositions containing the lipid/surfactant [1]: Homogeneous
shape of the depot compared to reference [1]: slight flattening of the depot compared to reference
ECell expansion compared to the reference [1]: relatively similar to the reference

Compound: CN(C)C=O [DMF, Dimethyl formamide]
expansion of the ECell by solvent, as judged by the eye [3]: cause expansion of the ECell

Compound: C[S+](C)[O-] [DMSO, Dimethyl sulphoxide]
expansion of the ECell by solvent, as judged by the eye [3]: cause expansion of the ECell

Compound: CCO [EtOH, Ethanol]
expansion of the ECell by solvent, as judged by the eye [3]: did not expand

Compound: O=S(=O)(CC1CS1)c1ccc(Oc2ccccc2)cc1 (stereo not shown) [SB-3CT]
cargo released in vitro after 42 days [5]: about 5%
log P [2]: 2.75

Compound: Cellulose Acetate [Cellulose Acetate (Mn=30,000)]
solubility in LOIB:DMSO ECell [6]: insoluble

From patent US20260174910A1, “POROUS EXPANDING BIOCOMPATIBLE SCAFFOLDS” (DANMARKS TEKNISKE UNIVERSITET, priority 2022, published 2026)
